In US4029692A, “Steroid carboxylic acids and derivatives” (priority 1975, dated 1977):

Legend:
[1] = system: experimentally hyperemiated skin; experiment: Vasoconstriction test; assay type: in vivo; settings: concentration 0.1%, visual estimate, hyperemiated non-treated skin = 0, non-hyperemiated skin = 100; for Vasoconstriction, colour value, 4 hrs.: after 4 hours; for Vasoconstriction, colour value, 8 hrs.: after 8 hours
Description: J. Derm. 69, 11 (1957)]. In this test, the degree of the vasoconstriction in relation to the time was estimated visually (after 4 and 8 hours). The colour value of the hyperemiated non-treated skin was rated as 0 and the colour value of the non-hyperemiated skin was rated as 100. The D-homosteroids were used in concentration of 0.1%.

[2] = system: thymus weight; experiment: Thymolysis test (thymus weight reduction); assay type: in vivo, rats (female); settings: Rattus norvegicus, 120 h; 50% reduction in the thymus weight; rats of the Felt pellet test; oral on 4 successive days
Description: (§1) 2 felt pellets were implanted under the skin (scapula region) in female rats (90-110 g) under ether narcosis. The D-homosteroids were administered orally on 4 successive days commencing on the day of the implantation. On the fifth day the rats were killed, the granulomas which formed were removed, dried and weighed. The ED40, namely that dosage which gave a 40% reduction of the granulation weight, was determined. The thymus and kidney fresh weight as well as the weight-change were also determined.
Rats employed in the Felt pellet test were used for this test. The ED50, namely that dosage which gave a 50% reduction in the thymus weight, was determined.

[3] = system: granulomas (felt pellets implanted under the skin); experiment: Felt pellet test (granulation weight reduction); assay type: in vivo, rats (female); settings: Rattus norvegicus, 120 h; 40% reduction of the granulation weight; oral on 4 successive days
Description: as §1

[4] = system: hind paw oedema (Mycobacterium butyricum); experiment: Adjuvant-paw oedema test; assay type: in vivo, Lewis rats (female); settings: in Rattus norvegicus, 50% oedema inhibition, given immediately before and 24 hours after, paw diameter at 48 hours
Description: This test was carried out on female Lewis rats weighing 130-150 g. The oedema was caused by the subplantar injection of Mycobacterium butyricum in the right hind paw (0.5 mg of M. butyricum/0.1 ml of liquid paraffin). The D-homosteroids (suspended in 0.5% tragacanth/0.9% sodium chloride) were administered immediately before and 24 hours after the establishment of the oedema. The paw diameter was measured before and 48 hours after the establishment of the oedema. The ED50, namely the dosage which brings about a 50% oedema inhibition, was determined by means of a graph.

COC(=O)[C@@]1(OC(C)=O)CCC[C@H]2[C@@H]3CCC4=CC(=O)CC[C@]4(C)[C@H]3[C@@H](O)C[C@@]21C [17aα-acetoxy-11β-hydroxy-3-oxo-D-homoandrost-4-ene-17aβ-carboxylic acid methyl ester]
Vasoconstriction, colour value, 4 hrs. [1]: 72
Vasoconstriction, colour value, 8 hrs. [1]: 70

COC(=O)[C@@]1(OC(C)=O)CCC[C@H]2[C@@H]3CCC4=CC(=O)C=C[C@]4(C)[C@@]3(F)[C@@H](O)C[C@@]21C [17aα-acetoxy-9α-fluoro-11β-hydroxy-3-oxo-D-homoandrosta-1,4-diene-17aβ-carboxylic acid methyl ester]
ED50 [2]: 0.9 mg/kg
ED40 [3]: 9 mg/kg
Vasoconstriction, colour value, 4 hrs. [1]: 63
Vasoconstriction, colour value, 8 hrs. [1]: 77
ED50 [4]: 1.3 mg/kg

COC(=O)[C@@]1(OC(C)=O)CCC[C@H]2[C@@H]3CCC4=CC(=O)C=C[C@]4(C)[C@H]3[C@@H](O)C[C@@]21C [17aα-acetoxy-11β-hydroxy-3-oxo-D-homoandrosta-1,4-diene-17aβ-carboxylic acid methyl ester]
ED50 [2]: 0.65 mg/kg
ED40 [3]: 3 mg/kg
Vasoconstriction, colour value, 4 hrs. [1]: 70
Vasoconstriction, colour value, 8 hrs. [1]: 77
ED50 [4]: 3.5 mg/kg
